Data reported in patent publication US12391648B2, “Pyridyloxy thioester derivative and preparation method therefor, herbicidal composition, and application” (Qingdao Kingagroot Chemical Compound Co., Ltd., priority 2018, dated 2025).

Experiments:
[1] = tested on: ALS resistant Echinochloa crusgalli; experiment: Post-emergence test experiment (Table 4), weed control; assay type: in vivo; settings: after 3 weeks
Text: (§1) The activity level standard of harmful plants destruction (i. e. growth inhibition rate) is as follows: • Level 5: the growth inhibition rate is greater than 85%; • Level 4: the growth inhibition rate is equal to or greater than 60% and less than 85%; • Level 3: the growth inhibition rate is equal to or greater than 40% and less than 60%; • Level 2: the growth inhibition rate is equal to or greater than 20% and less than 40%; • Level 1: the growth inhibition rate is equal to or greater than 5% and less than 20%; • Level 0: the growth inhibition rate is less than 5%;
(§2) The above described growth inhibition rate is fresh weight inhibition rate.
(§3) Post-emergence test experiment: Monocotyledonous and dicotyledonous weed seeds and main crop seeds (i. e. wheat, corn, rice, soybean, cotton, oilseed, millet and sorghum.) were put into a plastic pot loaded with soil. Then covered with 0.5-2 cm soil, the seeds were allowed to grow in good greenhouse environment. The test plants were treated at 2-3 leaf stage 2 weeks after sowing. The test compounds of the invention were dissolved with acetone respectively, then added with tween-80, and using 1.5 liters per hectare of an emulsible concentrate of methyl oleate as a synergist, and diluted by certain amount of water to certain concentration. The solution was sprayed to the plants with a sprayer. Then the plants were cultured for 3 weeks in the greenhouse, and the experiment result of weed controlling effect after 3 weeks was listed in tables 3-4.
(§4) […] Echinochloa crusgalli and Cyperus iria were collected from Ningxia Hui Autonomous Region of China, which had evolved resistance to ALS inhibiting herbicides. • Control compound A:

[2] = tested on: ALS resistant Cyperus iria; experiment: as above; assay type: in vivo; settings: after 3 weeks
Text: as §1, §2, §3, §4

rice = settings: known compound; cited from earlier work
Indica rice = experiment: Post-emergence test experiment (Table 4), crop safety; assay type: in vivo; settings: after 3 weeks
Text: as §1, §2, §3, §4

Japonica rice = experiment: as above; assay type: in vivo; settings: after 3 weeks
Text: as §1, §2, §3, §4

Monochoria vaginalis [3] = experiment: Weed control effect evaluation in rice field; assay type: in vivo; settings: 1000 g/ha, paddy water application at 0.5 leaf stage, 14 days after treatment, weeds resistant to pyrazosulfuron-ethyl and penoxsulam
Text: as §1
(§5) Transplanted rice safety evaluation and weed control effect evaluation in rice field:
Rice field soil was loaded into a 1/1,000,000 ha pot. The seeds of Monochoria vaginalis were sowed and gently covered with soil, then left to stand still in greenhouse in the state of 0.5-1 cm of water storage. It was kept at 3-4 cm of water storage thereafter. The weeds were treated by dripping the WP or SC water diluents prepared according to the common preparation method of the compounds of the present invention with pipette homogeneously to achieve specified effective amount when Monochoria vaginalis reached 0. 5 leaf stage.
(§6) The fertility condition of Monochoria vaginalis 14 days and rice 21 days after the treatment of the compound of the invention with the naked eye.
Note: The seeds of Monochoria vaginalis were collected from Heilongjing Province of China.

Digitaria sanguinalis = experiment: Post-emergence test experiment (Table 3, 1000 g/ha); assay type: in vivo; settings: post-emergence spray, after 3 weeks, fresh weight inhibition
Summary of the method: (§7)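 Weed seeds sown in soil-filled pots in greenhouse, sprayed at 2-3 leaf stage (2 weeks after sowing) with compound in acetone/tween-80 plus methyl oleate emulsible concentrate (1.5 L/ha) diluted in water. Fresh-weight growth inhibition scored after 3 weeks on 0-5 scale (5: >85%, 0: <5%).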

Monochoria vaginalis [4] = experiment: as above; assay type: in vivo; settings: post-emergence spray, after 3 weeks, fresh weight inhibition
Summary of the method: as §7

Leptochloa chinensis = experiment: as above; assay type: in vivo; settings: post-emergence spray, after 3 weeks, fresh weight inhibition
Summary of the method: as §7

Setaria viridis = experiment: as above; assay type: in vivo; settings: post-emergence spray, after 3 weeks, fresh weight inhibition
Summary of the method: as §7

Abutilon theophrasti = experiment: as above; assay type: in vivo; settings: post-emergence spray, after 3 weeks, fresh weight inhibition
Summary of the method: as §7

Galium spurium = experiment: as above; assay type: in vivo; settings: post-emergence spray, after 3 weeks, fresh weight inhibition
Summary of the method: as §7

rice (japonica rice) = experiment: Transplanted rice safety evaluation; assay type: in vivo; settings: 1000 g/ha, transplanted 3-leaf stage japonica rice, treated 5 days after transplantation, 21 days after treatment
Text: as §1, §5
In addition, the rice field soil that loaded into the 1/1,000,000 ha pot was leveled to keep water storage at 3-4 cm depth. The 3-leaf stage rice (japonica rice) was transplanted at 3 cm of transplanting depth the next day. The compound of the present invention was treated by the same way after 5 days of transplantation.
as §6

[5] = 600 g/ha active ingredient, plus water 450 kg/ha

CC(Oc1nc(F)c(Cl)c(N)c1Cl)C(=O)O (stereo not drawn) [Control compound A, reference compound]
ALS resistant Echinochloa crusgalli, activity level (growth inhibition rate) ([1]; 300 g/ha): 4 (Level 4: the growth inhibition rate is equal to or greater than 60% and less than 85%) | ALS resistant Echinochloa crusgalli, activity level (growth inhibition rate) [1, 5]: 5 (Level 5: the growth inhibition rate is greater than 85%) | ALS resistant Cyperus iria, activity level (growth inhibition rate) ([2]; 300 g/ha): 4 (Level 4: the growth inhibition rate is equal to or greater than 60% and less than 85%) | ALS resistant Cyperus iria, activity level (growth inhibition rate) [2, 5]: 5 (Level 5: the growth inhibition rate is greater than 85%) | safety and selectivity in rice (rice): poor safety and low selectivity in rice | Indica rice, activity level (growth inhibition rate) (Indica rice; 300 g/ha): 2 (Level 2: the growth inhibition rate is equal to or greater than 20% and less than 40%) | Indica rice, activity level (growth inhibition rate) (Indica rice; [5]): 3 (Level 3: the growth inhibition rate is equal to or greater than 40% and less than 60%) | Japonica rice, activity level (growth inhibition rate) (Japonica rice; 300 g/ha): 3 (Level 3: the growth inhibition rate is equal to or greater than 40% and less than 60%) | Japonica rice, activity level (growth inhibition rate) (Japonica rice; [5]): 3 (Level 3: the growth inhibition rate is equal to or greater than 40% and less than 60%)

CCCCOCCSC(=O)C(C)Oc1nc(F)c(Cl)c(N)c1Cl (stereo not drawn) [Compound 87]
ALS resistant Echinochloa crusgalli, activity level (growth inhibition rate) [1, 5]: 5 (Level 5: the growth inhibition rate is greater than 85%) | ALS resistant Cyperus iria, activity level (growth inhibition rate) [2, 5]: 5 (Level 5: the growth inhibition rate is greater than 85%) | Monochoria Vaginalis, activity standard level 0-5 (Monochoria vaginalis [3]): 5 (Level 5: the growth inhibition rate is greater than 85%) | Activity level (growth inhibition rate) Digitaria sanguinalis (Digitaria sanguinalis): 5 (Level 5: the growth inhibition rate is greater than 85%) | Activity level (growth inhibition rate) Monochoria Vaginalis (Monochoria vaginalis [4]): 5 (Level 5: the growth inhibition rate is greater than 85%) | Activity level (growth inhibition rate) Leptochloa chinensis (Leptochloa chinensis): 5 (Level 5: the growth inhibition rate is greater than 85%) | Activity level (growth inhibition rate) Setaria viridis (Setaria viridis): 5 (Level 5: the growth inhibition rate is greater than 85%) | Activity level (growth inhibition rate) Abutilon theophrasti (Abutilon theophrasti): 5 (Level 5: the growth inhibition rate is greater than 85%) | Activity level (growth inhibition rate) Galium spurium (Galium spurium): 5 (Level 5: the growth inhibition rate is greater than 85%) | Rice, activity standard level 0-5 (safety) (rice (japonica rice)): 0 (Level 0: the growth inhibition rate is less than 5%) | Indica rice, activity level (growth inhibition rate) (Indica rice; [5]): 0 (Level 0: the growth inhibition rate is less than 5%) | Japonica rice, activity level (growth inhibition rate) (Japonica rice; [5]): 0 (Level 0: the growth inhibition rate is less than 5%)

CC(Oc1nc(F)c(Cl)c(N)c1Cl)C(=O)SC1CCCCC1 (stereo not drawn) [Compound 82]
ALS resistant Echinochloa crusgalli, activity level (growth inhibition rate) [1, 5]: 5 (Level 5: the growth inhibition rate is greater than 85%) | ALS resistant Cyperus iria, activity level (growth inhibition rate) [2, 5]: 5 (Level 5: the growth inhibition rate is greater than 85%) | Monochoria Vaginalis, activity standard level 0-5 (Monochoria vaginalis [3]): 5 (Level 5: the growth inhibition rate is greater than 85%) | Activity level (growth inhibition rate) Digitaria sanguinalis (Digitaria sanguinalis): 5 (Level 5: the growth inhibition rate is greater than 85%) | Activity level (growth inhibition rate) Monochoria Vaginalis (Monochoria vaginalis [4]): 5 (Level 5: the growth inhibition rate is greater than 85%) | Activity level (growth inhibition rate) Leptochloa chinensis (Leptochloa chinensis): 5 (Level 5: the growth inhibition rate is greater than 85%) | Activity level (growth inhibition rate) Setaria viridis (Setaria viridis): 5 (Level 5: the growth inhibition rate is greater than 85%) | Activity level (growth inhibition rate) Abutilon theophrasti (Abutilon theophrasti): 5 (Level 5: the growth inhibition rate is greater than 85%) | Activity level (growth inhibition rate) Galium spurium (Galium spurium): 5 (Level 5: the growth inhibition rate is greater than 85%) | Rice, activity standard level 0-5 (safety) (rice (japonica rice)): 0 (Level 0: the growth inhibition rate is less than 5%) | Indica rice, activity level (growth inhibition rate) (Indica rice; [5]): 0 (Level 0: the growth inhibition rate is less than 5%) | Japonica rice, activity level (growth inhibition rate) (Japonica rice; [5]): 0 (Level 0: the growth inhibition rate is less than 5%)

CC(Cl)CCSC(=O)C(C)Oc1nc(F)c(Cl)c(N)c1Cl (stereo not drawn) [Compound 77]
ALS resistant Echinochloa crusgalli, activity level (growth inhibition rate) [1, 5]: 5 (Level 5: the growth inhibition rate is greater than 85%) | ALS resistant Cyperus iria, activity level (growth inhibition rate) [2, 5]: 5 (Level 5: the growth inhibition rate is greater than 85%) | Monochoria Vaginalis, activity standard level 0-5 (Monochoria vaginalis [3]): 5 (Level 5: the growth inhibition rate is greater than 85%) | Activity level (growth inhibition rate) Digitaria sanguinalis (Digitaria sanguinalis): 5 (Level 5: the growth inhibition rate is greater than 85%) | Activity level (growth inhibition rate) Monochoria Vaginalis (Monochoria vaginalis [4]): 5 (Level 5: the growth inhibition rate is greater than 85%) | Activity level (growth inhibition rate) Leptochloa chinensis (Leptochloa chinensis): 5 (Level 5: the growth inhibition rate is greater than 85%) | Activity level (growth inhibition rate) Setaria viridis (Setaria viridis): 5 (Level 5: the growth inhibition rate is greater than 85%) | Activity level (growth inhibition rate) Abutilon theophrasti (Abutilon theophrasti): 5 (Level 5: the growth inhibition rate is greater than 85%) | Activity level (growth inhibition rate) Galium spurium (Galium spurium): 5 (Level 5: the growth inhibition rate is greater than 85%) | Rice, activity standard level 0-5 (safety) (rice (japonica rice)): 0 (Level 0: the growth inhibition rate is less than 5%) | Indica rice, activity level (growth inhibition rate) (Indica rice; [5]): 0 (Level 0: the growth inhibition rate is less than 5%) | Japonica rice, activity level (growth inhibition rate) (Japonica rice; [5]): 0 (Level 0: the growth inhibition rate is less than 5%)

CCSC(=O)C(C)Oc1nc(F)c(Cl)c(N)c1Cl (stereo not drawn) [Compound 66]
ALS resistant Echinochloa crusgalli, activity level (growth inhibition rate) [1, 5]: 5 (Level 5: the growth inhibition rate is greater than 85%) | ALS resistant Cyperus iria, activity level (growth inhibition rate) [2, 5]: 5 (Level 5: the growth inhibition rate is greater than 85%) | Monochoria Vaginalis, activity standard level 0-5 (Monochoria vaginalis [3]): 5 (Level 5: the growth inhibition rate is greater than 85%) | Activity level (growth inhibition rate) Digitaria sanguinalis (Digitaria sanguinalis): 5 (Level 5: the growth inhibition rate is greater than 85%) | Activity level (growth inhibition rate) Monochoria Vaginalis (Monochoria vaginalis [4]): 5 (Level 5: the growth inhibition rate is greater than 85%) | Activity level (growth inhibition rate) Leptochloa chinensis (Leptochloa chinensis): 5 (Level 5: the growth inhibition rate is greater than 85%) | Activity level (growth inhibition rate) Setaria viridis (Setaria viridis): 5 (Level 5: the growth inhibition rate is greater than 85%) | Activity level (growth inhibition rate) Abutilon theophrasti (Abutilon theophrasti): 5 (Level 5: the growth inhibition rate is greater than 85%) | Activity level (growth inhibition rate) Galium spurium (Galium spurium): 5 (Level 5: the growth inhibition rate is greater than 85%) | Rice, activity standard level 0-5 (safety) (rice (japonica rice)): 0 (Level 0: the growth inhibition rate is less than 5%) | Indica rice, activity level (growth inhibition rate) (Indica rice; [5]): 0 (Level 0: the growth inhibition rate is less than 5%) | Japonica rice, activity level (growth inhibition rate) (Japonica rice; [5]): 0 (Level 0: the growth inhibition rate is less than 5%)

CC(C)=NOCCSC(=O)C(C)Oc1nc(F)c(Cl)c(N)c1Cl (stereo not drawn) [Compound 97]
ALS resistant Echinochloa crusgalli, activity level (growth inhibition rate) [1, 5]: 5 (Level 5: the growth inhibition rate is greater than 85%) | ALS resistant Cyperus iria, activity level (growth inhibition rate) [2, 5]: 5 (Level 5: the growth inhibition rate is greater than 85%) | Monochoria Vaginalis, activity standard level 0-5 (Monochoria vaginalis [3]): 5 (Level 5: the growth inhibition rate is greater than 85%) | Activity level (growth inhibition rate) Digitaria sanguinalis (Digitaria sanguinalis): 5 (Level 5: the growth inhibition rate is greater than 85%) | Activity level (growth inhibition rate) Monochoria Vaginalis (Monochoria vaginalis [4]): 5 (Level 5: the growth inhibition rate is greater than 85%) | Activity level (growth inhibition rate) Leptochloa chinensis (Leptochloa chinensis): 5 (Level 5: the growth inhibition rate is greater than 85%) | Activity level (growth inhibition rate) Setaria viridis (Setaria viridis): 5 (Level 5: the growth inhibition rate is greater than 85%) | Activity level (growth inhibition rate) Abutilon theophrasti (Abutilon theophrasti): 5 (Level 5: the growth inhibition rate is greater than 85%) | Activity level (growth inhibition rate) Galium spurium (Galium spurium): 5 (Level 5: the growth inhibition rate is greater than 85%) | Rice, activity standard level 0-5 (safety) (rice (japonica rice)): 0 (Level 0: the growth inhibition rate is less than 5%) | Indica rice, activity level (growth inhibition rate) (Indica rice; [5]): 0 (Level 0: the growth inhibition rate is less than 5%) | Japonica rice, activity level (growth inhibition rate) (Japonica rice; [5]): 0 (Level 0: the growth inhibition rate is less than 5%)
